In experiment [1] the test system is HepG2 cells. Description: Lysosome status (acridine orange and Lysotracker Deep Red staining). As to conditions: HepG2, 3 h, total IC50 concentration (5, 4.5, 4, 4.5 µM). The format is cell-based, human. The protocol:
To analyse the condition of the lysosomes, the cells (2 × 10^5) were stained with the 100 nM LysoTracker™ Deep Red (Thermo Fisher Scientific) fluorescent dye for 30 min under growth conditions. The HepG2 and MRC-5 cells were treated with the tested compounds for 3 h.Final concentration of the compounds for HepG2 cells were as follows: 34–5 µM, 35–4.5 µM, 36–4 µM, 37–4.5 µM, whereas for MRC-5 were: 34–2.1 µM, 35–2 µM, 36–2.3 µM, 37–2.3 µM. Subsequently, the cells were trypsinized, rinsed with 1 ml of DPBS (Capricorn), and then incubated with the dye. Then, cytometric analysis of the stained cells was performed at an excitation/emission wavelength of 647/668 nm.
Lysosomal permeabilization was tested using the acridine orange (AO) dye. After treatment with the compounds, the cell pellets were suspended in 500 µl of DBPS containing AO (Sigma-Aldrich) at the final concentration of 0.5 µg/ml. […] Fluorescence intensity was analysed at an excitation wavelength of 488 nm, and two emission spectra were acquired at 505–550 and 600–650 nm for green and red fluorescence, respectively. The cells were analysed after incubation with the dye, with excitation at 488 nm, using a FACSCalibur flow cytometer (Becton Dickinson), and the data were analysed using the FlowJo software (Becton Dickinson). […]

For experiment [2], the system named is relaxed pBR 322 plasmid DNA. In words: DNA unwinding assay, relaxed plasmid as substrate. In kind it is binding. As to conditions: 10 µM, in the presence of Topo I. The text has this: Compounds that are able to intercalate into DNA or bind in the groove are involved in the local unwinding of the DNA, leading to a decrease in the twist number and an increase in the writhe number of the previously relaxed plasmid DNA used in the assay, resulting in a positively supercoiled DNA. If this DNA is then nicked by a topoisomerase, the enzyme will remove supercoils and relax the DNA, followed by religation. Upon removal of the compound and the enzyme by butanol extraction, the twist will increase, so the writhe will decrease, resulting in more negatively supercoiled DNA, which runs faster on agarose gel. […] This assay should be verified by performing a second reaction using a negatively supercoiled plasmid as a substrate to confirm that the compound is not simply acting as an inhibitor of the Topo I.
The DNA Unwinding Assay Kit (Cat no. DUKSR001) was purchased from Inspiralis (Norwich, UK). […] After extraction, the aqueous layer was mixed with an equal volume of STEB buffer (40% (w/v) sucrose, Tris–HCl (100 mM, pH 8), EDTA (1 mM), bromophenol blue (0.5 mg/ml)), extracted with chloroform/isoamyl alcohol (24:1), and analysed on 1% agarose gel in TAE buffer at 70 V for 2 h, followed by ethidium bromide staining. […]

For experiment [3], the system named is HepG2 cells. In words: Mitochondrial membrane potential (MMP) measurement (JC-1). In kind it is cell-based, human. As to conditions: HepG2, 3-h treatment, 4.5 µM; 69.9% in control cells. The protocol: The HepG2 cells were seeded at the density of 2 × 10^5 cells/well onto 12-well plates and cultured with EMEM at 37 °C under 5% CO2 saturation until 70–80% confluency was reached. […] After incubation, the cells were detached with trypsin (Corning®) and washed twice with 1 ml of DPBS (Capricorn), and alterations in ΔΨm were analysed using the MMP-sensitive cationic dye 5,5′,6,6′-tetrachloro-1,1′,3,3′-tetraethylbenzimidazolylcarbocyanine iodide (JC-1; Thermo Fisher Scientific), which can selectively enter mitochondria and change colour from red to green as the membrane potential decreases. The cells were stained with 2.5 µM JC-1 for 30 min at 37 °C in the dark. The maximum emission wavelengths of JC-1 monomers and “J-aggregates” were ∼ 525 (FL-1 channel) and ∼ 590 (FL-2 channel) nm, respectively. To create a strong, single positive green fluorescence signal, 3 µM FCCP was used. The mean fluorescence intensity representing the intracellular MMP level was analysed after incubation with the dye, with excitation at 488 nm using a FACSCalibur flow cytometer (Becton Dickinson), and the data were analysed using the FlowJo software (Becton Dickinson).

Experiment [4] concerns HepG2 cells. In words: Ca2+ homeostasis determination (Rhod-2 AM). The format is cell-based, human. The settings on record: HepG2, 24 h, total IC50 concentration. As to the method:
Ca^2+ released was determined by the selective dye Calcium Rhod-2 AM (Thermo Fisher Scientific), which binds specifically to Ca^2+ ions that are related to an increase in dihydrorhod-2 AM concentration, and thus, an enhancement in fluorescence intensity occurred. After treatment, the cells were detached with trypsin (Corning®), washed with 1 ml of DPBS (Capricorn), and then resuspended in EMEM with 2.5 µM Rhod-2 AM. All the samples were incubated for 15 min at 37 °C in the dark, and fluorescence intensity was then analysed at an excitation/emission wavelength of 552/581 nm. The cells were analysed after incubation with the dye with excitation at 488 nm using a FACSCalibur flow cytometer (Becton Dickinson), and the data were analysed using the FlowJo software (Becton Dickinson).

These results are taken from publication PMC9888480, “Carboranyl-1,8-naphthalimide intercalators induce lysosomal membrane permeabilization and ferroptosis in cancer cell lines” (Journal of Enzyme Inhibition and Medicinal Chemistry, 2023).

In the case of “4-[(6-[(1,2-Dicarba-closo-dodecaborane-1-yl)ethylamino]hexyl)amino]-N-[2-(dimethylamino)ethyl]-3-nitro-1,8-naphthalimide [Compound 34]”, the “AO green/red ratio (LMP)” value in the experiment with HepG2 cells [1] is given as “approximately twofold”. For the substance “4-[(6-[(1,7-Dicarba-closo-dodecaborane-1-yl)ethylamino]hexyl)amino]-3-nitro-N-[2-(N-pyrrolidinyl)ethyl]-1,8-naphthalimide [Compound 37]”, in experiment [2], the “DNA intercalation (supercoiled DNA fraction from relaxed plasmid)” value is “strongest DNA intercalator”. As for “4-[(6-[(1,7-Dicarba-closo-dodecaborane-1-yl)ethylamino]hexyl)amino]-N-[2-(dimethylamino)ethyl]-3-nitro-1,8-naphthalimide [Compound 35]”, the “MMP, JC-1 aggregates” value with HepG2 cells [3] was 90.8%. Further, in the experiment with HepG2 cells [1], the “AO green/red ratio (LMP)” value is “approximately twofold”. Also, the “Ca2+ accumulation compared to control” value with HepG2 cells [4] was “more than threefold”. With “4-[(6-[(1,2-Dicarba-closo-dodecaborane-1-yl)ethylamino]hexyl)amino]-3-nitro-N-[2-(N-pyrrolidinyl)ethyl]-1,8-naphthalimide [Compound 36]”, the “Ca2+ accumulation compared to control” value with HepG2 cells [4] is recorded as “slightest effect”.
